The source of these data is patent US12371454B2, “Cyclic peptide compound having Kras inhibitory action” (priority 2019, dated 2025).

Starred links: 1 amine or outer side, 2 acyl side, 3 side chain; linkers in the order of their positions; H or OH if unused. Positions of bridges follow the written chain, without caps; N, C: chain ends. Non-standard residues stand in square brackets, D forms with d. Residues, ends and D or L forms follow the SMILES beside them. *: point of attachment. hPhe(3-Cl-4-CF3) = N[C@@H](CCc1ccc(C(F)(F)F)c(Cl)c1)C(=O)O; NMePhe(3-CN) = CN[C@@H](Cc1cccc(C#N)c1)C(=O)O; NMePhe(4-Me) = CN[C@@H](Cc1ccc(C)cc1)C(=O)O; NMedβ3hAla = C[C@H](CC(=O)[*:2])N(C)[*:1]; NMeGly(cPent) = CN[C@H](C(=O)O)C1CCCC1; Phe(2-Cl) = N[C@@H](Cc1ccccc1Cl)C(=O)O; Phe(3-I) = N[C@@H](Cc1cccc(I)c1)C(=O)O; Phe(4-F) = N[C@@H](Cc1ccc(F)cc1)C(=O)O; NMeAla(cPr) = CN[C@@H](CC1CC1)C(=O)O; NMeCha = CN[C@@H](CC1CCCCC1)C(=O)O; NMeCba = CN[C@@H](CC1CCC1)C(=O)O; NMeChg = CN[C@H](C(=O)O)C1CCCCC1; NMeI = CC[C@H](C)[C@H](NC)C(=O)O; N(CH2CH2)2CF2 = FC1(F)CCN(*)CC1; NMeD = CN[C@@H](CC(=O)O)C(=O)O; NMeL = CN[C@@H](CC(C)C)C(=O)O; NMeV = CN[C@H](C(=O)O)C(C)C; d(β3hA) = C[C@@H](N)CC(=O)O; Azetidin(1-yl) = C1CN(*)C1; NMeA = CN[C@@H](C)C(=O)O; NMeAib = CNC(C)(C)C(=O)O; Piperidide = C1CCN(*)CC1; Pra = C#CC[C@H](N)C(=O)O; Ac5c = NC1(C(=O)O)CCCC1; Aze = O=C(O)[C@@H]1CCN1; Sar = CNCC(=O)O

In the assay the target is T1, Kras and SOS1 (biotin-tagged human Kras loaded with GDP, His-tagged human SOS1) (Homo sapiens, UniProt P01116, G12D).
T1 construct: made in house; host or cells: E. coli (stated for Kras only)
Nature of the assay: Protein-protein interaction inhibition between Kras and SOS1 (KrasGl2D-SOS PPI) using AlphaScreen. It is filed as binding. The note with it: AlphaScreen; biotin-tagged human Kras loaded with GDP, His-tagged human SOS1; read-out: KRAS G12D-SOS PPI IC50. The method in brief: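 Binding between SOS1 and Kras is detected as bead-proximity luminescence: illuminate Ni-conjugated donors (680 nm), collect 520-620 nm emission from streptavidin-conjugated acceptors; Kras carries biotin and GDP loaded after purification, SOS1 carries a His tag.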

T1 sequence (P01116 1-188 isoform P01116-2 G12D): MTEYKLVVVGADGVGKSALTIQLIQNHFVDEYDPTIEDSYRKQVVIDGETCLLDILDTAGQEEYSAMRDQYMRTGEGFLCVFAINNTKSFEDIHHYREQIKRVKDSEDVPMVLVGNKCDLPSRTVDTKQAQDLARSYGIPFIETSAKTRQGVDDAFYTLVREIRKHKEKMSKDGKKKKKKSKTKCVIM

With `CC[C@H](C)[C@@H]1NC(=O)[C@H](CC(C)C)N(C)C(=O)C[C@@H](C(=O)N2CCCCC2)N(C)C(=O)[C@H](CC(C)C)NC(=O)C(C)(C)N(C)C(=O)[C@H](Cc2ccccc2Cl)NC(=O)[C@H](Cc2cccc(I)c2)NC(=O)CN(C)C(=O)[C@H](Cc2ccc(C)cc2)N(C)C(=O)CN(C)C(=O)CN(C)C1=O` [Compound 706] ([NMeL]I[Sar][Sar][NMePhe(4-Me)][Sar][Phe(3-I)][Phe(2-Cl)][NMeAib]L[NMeD]-Piperidide; lactam N-11), the IC50 (as a rule, the point on the concentration scale where inhibition reaches its midpoint) came out at 0.066 µM.

Consider `CC[C@H](C)[C@@H]1NC(=O)[C@H](CC(C)C)N(C)C(=O)C[C@@H](C)NC(=O)[C@H](CC2CC2)N(C)C(=O)C2(CCCC2)NC(=O)[C@@H]2CCCN2C(=O)[C@H](CCc2ccc(C(F)(F)F)c(Cl)c2)NC(=O)CN(C)C(=O)[C@H](CC2CCCCC2)N(C)C(=O)CN(C)C(=O)CN(C)C1=O` [Compound 707] (cyclo([Ac5c][NMeAla(cPr)][d(β3hA)][NMeL]I[Sar][Sar][NMeCha][Sar][hPhe(3-Cl-4-CF3)]P)), for which the IC50 turned out to be 0.014 µM.

As to `CC[C@H](C)[C@@H]1NC(=O)[C@H](CC(C)C)N(C)C(=O)C[C@@H](C(=O)N2CCCCC2)N(C)C(=O)[C@H](C(C)C)N(C)C(=O)C2(CCCC2)NC(=O)[C@@H]2CCCN2C(=O)[C@H](CCc2ccc(C(F)(F)F)c(Cl)c2)NC(=O)CN(C)C(=O)[C@H](Cc2cccc(C#N)c2)N(C)C(=O)CN(C)C(=O)CN(C)C1=O` [Compound 710] ([NMeL]I[Sar][Sar][NMePhe(3-CN)][Sar][hPhe(3-Cl-4-CF3)]P[Ac5c][NMeV][NMeD]-Piperidide; lactam N-11), the IC50 was 0.0044 µM.

As for `CC[C@H](C)[C@@H]1NC(=O)[C@H](CC(C)C)N(C)C(=O)C[C@@H](C(=O)N2CCCCC2)N(C)C(=O)[C@H](CC(C)C)NC(=O)C(C)(C)N(C)C(=O)[C@H](Cc2ccc(F)cc2)NC(=O)[C@H](Cc2cccc(I)c2)NC(=O)CN(C)C(=O)[C@H](CC2CCCCC2)N(C)C(=O)CN(C)C(=O)CN(C)C1=O` [Compound 711] ([NMeL]I[Sar][Sar][NMeCha][Sar][Phe(3-I)][Phe(4-F)][NMeAib]L[NMeD]-Piperidide; lactam N-11), the half-maximal inhibitory concentration (IC50) turned out to be 0.035 µM.

Consider `CC[C@H](C)[C@@H]1NC(=O)[C@H](CC(C)C)N(C)C(=O)C[C@@H](C(=O)N(C)C)N(C)C(=O)[C@H]([C@@H](C)CC)N(C)C(=O)[C@H](C)NC(=O)[C@H](C)N(C)C(=O)[C@H](CCc2ccc(C(F)(F)F)c(Cl)c2)NC(=O)CN(C)C(=O)[C@H](Cc2ccc(C)cc2)N(C)C(=O)[C@@H]2CCN2C(=O)[C@H](C)N(C)C1=O` [Compound 715] ([NMeL]I[NMeA][Aze][NMePhe(4-Me)][Sar][hPhe(3-Cl-4-CF3)][NMeA]A[NMeI][NMeD]-NMe2; lactam N-11), for which the IC50 was determined as 0.0061 µM.

As to `C#CC[C@@H]1NC(=O)[C@H](CC(C)C)N(C)C(=O)C[C@@H](C(=O)N2CCCCC2)N(C)C(=O)[C@H](C2CCCCC2)N(C)C(=O)C2(CCCC2)NC(=O)[C@@H]2CCCN2C(=O)[C@H](CCc2ccc(C(F)(F)F)c(Cl)c2)NC(=O)CN(C)C(=O)[C@H](CC2CCCCC2)N(C)C(=O)CN(C)C(=O)CN(C)C1=O` [Compound 716] ([NMeL][Pra][Sar][Sar][NMeCha][Sar][hPhe(3-Cl-4-CF3)]P[Ac5c][NMeChg][NMeD]-Piperidide; lactam N-11), the IC50 stood at 0.0011 µM.

`CC[C@H](C)[C@@H]1NC(=O)[C@H](CC(C)C)N(C)C(=O)C[C@@H](C(=O)N2CCC2)N(C)C(=O)[C@H](C2CCCC2)N(C)C(=O)C2(CCCC2)NC(=O)[C@H](CC(=O)N2CCC(F)(F)CC2)N(C)C(=O)[C@H](CCc2ccc(C(F)(F)F)c(Cl)c2)NC(=O)CN(C)C(=O)[C@H](CC2CCCCC2)N(C)C(=O)[C@@H]2CCN2C(=O)[C@H](C)N(C)C1=O` [Compound 719] ([NMeL]I[NMeA][Aze][NMeCha][Sar][hPhe(3-Cl-4-CF3)][NMeD](N(CH2CH2)2CF2)[Ac5c][NMeGly(cPent)][NMeD]-{Azetidin(1-yl)}; lactam N-11): the IC50 is 0.0059 µM.

For the compound `CC[C@H](C)[C@@H]1NC(=O)[C@H](CC(C)C)N(C)C(=O)C[C@@H](C(=O)N2CCCCC2)N(C)C(=O)[C@H](C2CCCCC2)N(C)C(=O)C2(CCCC2)NC(=O)[C@@H]2CCCN2C(=O)[C@H](CCc2ccc(C(F)(F)F)c(Cl)c2)NC(=O)[C@H](C)N(C)C(=O)[C@H](CC2CCCCC2)N(C)C(=O)CN(C)C(=O)CN(C)C1=O` [Compound 722] ([NMeL]I[Sar][Sar][NMeCha][NMeA][hPhe(3-Cl-4-CF3)]P[Ac5c][NMeChg][NMeD]-Piperidide; lactam N-11), the IC50 was found to be 0.42 µM.

For `CC[C@H](C)[C@@H]1NC(=O)[C@H](CC(C)C)N(C)C(=O)C[C@@H](C)N(C)C(=O)[C@H](CC2CCC2)N(C)C(=O)C2(CCCC2)NC(=O)[C@@H]2CCCN2C(=O)[C@H](CCc2ccc(C(F)(F)F)c(Cl)c2)NC(=O)CN(C)C(=O)[C@H](CC2CCCCC2)N(C)C(=O)CN(C)C(=O)CN(C)C1=O` [Compound 723] (cyclo([Ac5c][NMeCba][NMedβ3hAla][NMeL]I[Sar][Sar][NMeCha][Sar][hPhe(3-Cl-4-CF3)]P)), the 50% inhibitory concentration (IC50) is 0.017 µM.
